This is an account of results in the supplement of paper PMC11127212.

Series [1] in a line: collision cross section (TWIMS, N2) of ion [M+H]+; higher = larger gas-phase ion cross section. Particulars: ionization: ESI positive; LC: HILIC, pH 3.0 ammonium formate. How it is done:
(§1)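 Reference standards (20-100 uM) were separated by HILIC UPLC (BEH HILIC, 45 °C): acidic pH 3.0 ammonium formate/formic acid for ESI+ and basic pH 9.0 ammonium acetate/ammonia for ESI-. They were analysed on a Synapt G2-Si traveling-wave IMS-QTOF with nitrogen drift gas (WH 30 V; WV 800 m/s in ESI+ and 1000 m/s in ESI-).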

Series [2] in a line: retention time on BEH HILIC column (20 min gradient, 0.4 mL/min); higher = later elution. Particulars: LC: HILIC. The method, then:
as §1

The nature of series [3]: collision cross section (TWIMS, N2) of ion [M-H]-; higher = larger gas-phase ion cross section. The following applies: ionization: ESI negative; LC: HILIC, pH 9.0 ammonium acetate. How it is done:
as §1

[4] abbreviates: ionization: ESI negative, pH 9.0 ammonium acetate.
Setting [5] is: ionization: ESI positive, pH 3.0 ammonium formate.

For `O=C(O)CCCC[C@@H]1SC[C@@H]2NC(=O)N[C@@H]21` [Biotin], the collision cross section in series [1] turned out to be 148.62 Å²; in series [3], 153.03 Å². Also, the “retention time on BEH HILIC column” value in series [2] (setting [4]) amounted to 1.78 min; in series [2] (setting [5]), 1.88 min.
In the case of `Nc1c(C(=O)O)c2nc3c(C(=O)O)cccc3oc-2cc1=O` [Cinnavalininate], the values for the collision cross section in series [1] and in series [3] were 156.61 Å² and 156.31 Å², respectively. Further, the “retention time on BEH HILIC column” value in series [2] (setting [4]) is 2.92 min; in series [2] (setting [5]) it was 2.66 min.
Regarding `NC(=O)NCCC[C@H](N)C(=O)O` [Citrulline], the collision cross section is recorded as 137.33 Å² in series [1] and 135.18 Å² in series [3]. Also, the entries for the “retention time on BEH HILIC column” value in series [2] (setting [4]) and in series [2] (setting [5]) were 9.07 min and 8.89 min, respectively.
For the molecule `NCCc1ccc(O)c(O)c1` [Dopamine], the collision cross section in series [1] is 139.55 Å²; in series [3], 130.85 Å². In addition, the entries for the “retention time on BEH HILIC column” value in series [2] (setting [4]) and in series [2] (setting [5]) were 4.35 min and 4.6 min, respectively.
On to `CC/C=C\C/C=C\C/C=C\C/C=C\C/C=C\CCCC(=O)O` [Eicosapentaenoic acid], for which the collision cross section is given as 177.23 Å² in series [1] and 190.11 Å² in series [3]. Besides, the “retention time on BEH HILIC column” value was determined as 0.72 min in series [2] (setting [4]) and 0.75 min in series [2] (setting [5]).
The matching figures for `Cc1cc2nc3c(=O)[nH]c(=O)nc-3n(C[C@H](O)[C@H](O)[C@H](O)COP(=O)(O)OP(=O)(O)OC[C@H]3O[C@@H](n4cnc5c(N)ncnc54)[C@H](O)[C@@H]3O)c2cc1C` [FAD]: 250.07 Å², 243.71 Å², 10.6 min and 10.5 min.
For `N[C@@H](CCC(=O)N[C@@H](CS)C(=O)NCC(=O)O)C(=O)O` [Glutathione], the collision cross section came out at 166.01 Å² in series [1] and 166.5 Å² in series [3]. For the same molecule, the “retention time on BEH HILIC column” value in series [2] (setting [4]) turned out to be 9.37 min; in series [2] (setting [5]), 9.46 min.
On to `Nc1nc(=O)c2[nH]cnc2[nH]1` [Guanine], for which the collision cross section is 128.49 Å² in series [1] and 125.12 Å² in series [3]. Further, the figures for the “retention time on BEH HILIC column” value in series [2] (setting [4]) and in series [2] (setting [5]) were 3.65 min and 3.62 min, respectively.
Take `Oc1ncnc2nc[nH]c12` [Hypoxanthine]: the figures for the collision cross section in series [1] and in series [3] were 125.05 Å² and 121.62 Å², respectively. The results for the “retention time on BEH HILIC column” value in series [2] (setting [4]) and in series [2] (setting [5]) were 2.31 min and 2.28 min, respectively.
Take `O=C(O)Cc1c[nH]c2ccccc12` [Indoleacetic acid]: the collision cross section in series [1] is 137.05 Å²; in series [3], 141.98 Å². Also, the “retention time on BEH HILIC column” value in series [2] (setting [4]) was found to be 0.88 min; in series [2] (setting [5]), 0.9 min.
Regarding `O=C(O)c1cc(=O)c2ccccc2[nH]1` [Kynurenic acid], the results for the collision cross section in series [1] and in series [3] were 135.88 Å² and 134.49 Å², respectively. Further, the entries for the “retention time on BEH HILIC column” value in series [2] (setting [4]) and in series [2] (setting [5]) were 4.13 min and 4.01 min, respectively.
On to `N=C(N)NCCC[C@H](N)C(=O)O` [L-arginine], for which the collision cross section came to 136.63 Å² in series [1] and 136.62 Å² in series [3]. The “retention time on BEH HILIC column” value in series [2] (setting [4]) turned out to be 11.1 min; in series [2] (setting [5]), 10.8 min.
For the molecule `N[C@@H](CCSC[C@H](N)C(=O)O)C(=O)O` [L-cystathionine], the collision cross section in series [1] is on record as 144 Å²; in series [3], 142.48 Å². Moreover, the “retention time on BEH HILIC column” value in series [2] (setting [4]) stood at 11.2 min; in series [2] (setting [5]), 11.3 min.
On to `N[C@@H](CSSC[C@H](N)C(=O)O)C(=O)O` [L-cystine], for which the values for the collision cross section in series [1] and in series [3] were 146.43 Å² and 143.16 Å², respectively. Moreover, the “retention time on BEH HILIC column” value in series [2] (setting [4]) came out at 12 min; in series [2] (setting [5]), 11.4 min.
Take `N[C@@H](Cc1cnc[nH]1)C(=O)O` [L-histidine]: the collision cross section in series [1] is on record as 131.08 Å²; in series [3] it was 129.28 Å². Besides, the “retention time on BEH HILIC column” value in series [2] (setting [4]) came out at 12.7 min; in series [2] (setting [5]), 12.6 min.
`CC[C@H](C)[C@H](N)C(=O)O` [L-isoleucine]: the results for the collision cross section in series [1] and in series [3] were 133.13 Å² and 129.46 Å², respectively. In addition, the “retention time on BEH HILIC column” value is 6.68 min in series [2] (setting [4]) and 6.47 min in series [2] (setting [5]).
Take `CC(C)C[C@H](N)C(=O)O` [L-leucine]: the collision cross section is reported as 131.44 Å² in series [1] and 131.1 Å² in series [3]. Further, the “retention time on BEH HILIC column” value was found to be 6.46 min in series [2] (setting [4]) and 6.26 min in series [2] (setting [5]).
In the same order, the values of `NCCCC[C@H](N)C(=O)O` [L-lysine] are 131.69 Å², 135.63 Å², 11.6 min and 11.3 min.
For `N[C@@H](Cc1ccccc1)C(=O)O` [L-phenylalanine], the collision cross section was 137.14 Å² in series [1] and 138.51 Å² in series [3]. Moreover, the entries for the “retention time on BEH HILIC column” value in series [2] (setting [4]) and in series [2] (setting [5]) were 6.02 min and 5.92 min, respectively.
For the molecule `N[C@@H](Cc1c[nH]c2ccccc12)C(=O)O` [L-tryptophan], the collision cross section in series [1] was determined as 147.76 Å²; in series [3] it was 148.33 Å². Moreover, the “retention time on BEH HILIC column” value is 5.86 min in series [2] (setting [4]) and 5.77 min in series [2] (setting [5]).
With `CC(C)[C@H](N)C(=O)O` [L-valine], the figures for the collision cross section in series [1] and in series [3] were 123.49 Å² and 126.43 Å², respectively. Further, the “retention time on BEH HILIC column” value came out at 6.85 min in series [2] (setting [4]) and 6.79 min in series [2] (setting [5]).
As to `CCCCCCC(=O)OC` [Methyl heptanoate], the results for the collision cross section in series [1] and in series [3] were 137.86 Å² and 137.2 Å², respectively. Besides, the entries for the “retention time on BEH HILIC column” value in series [2] (setting [4]) and in series [2] (setting [5]) were 1.13 min and 0.84 min, respectively.
The matching figures for `CCCCCCCCC(=O)OC` [Methyl nonanoate]: 148.93 Å², 144.8 Å², 1.03 min and 1.03 min.
The matching figures for `NCCC[C@H](N)C(=O)O` [Ornithine]: 129.31 Å², 129.53 Å², 11.2 min and 11.1 min.
The matching figures for `N[C@@H](CCC(=O)N[C@@H](CSSC[C@H](NC(=O)CC[C@H](N)C(=O)O)C(=O)NCC(=O)O)C(=O)NCC(=O)O)C(=O)O` [Oxidized glutathione]: 226.92 Å², 216.04 Å², 12.5 min and 12.6 min.
For the molecule `O=C1CC[C@@H](C(=O)O)N1` [Pyroglutamic acid], the collision cross section is reported as 126.02 Å² in series [1] and 123.74 Å² in series [3]. Moreover, the “retention time on BEH HILIC column” value worked out at 5.48 min in series [2] (setting [4]) and 6.77 min in series [2] (setting [5]).
In the case of `Cc1cc2nc3c(=O)[nH]c(=O)nc-3n(C[C@H](O)[C@H](O)[C@H](O)CO)c2cc1C` [Riboflavin], the results for the collision cross section in series [1] and in series [3] were 182.66 Å² and 184.43 Å², respectively. The “retention time on BEH HILIC column” value in series [2] (setting [4]) came out at 3.11 min; in series [2] (setting [5]), 5.57 min.
In the same order, the values of `CC(C)(COP(=O)(O)OP(=O)(O)OC[C@H]1O[C@@H](n2cnc3c(N)ncnc32)[C@H](O)[C@@H]1OP(=O)(O)O)[C@@H](O)C(=O)NCCC(=O)NCCSC(=O)CCC(=O)O` [Succinyl-CoA] are 260.23 Å², 262.11 Å², 12.3 min and 13.5 min.
With `NCCS(=O)(=O)O` [Taurine], the collision cross section in series [1] turned out to be 126.38 Å²; in series [3], 119.39 Å². Further, the “retention time on BEH HILIC column” value in series [2] (setting [4]) turned out to be 6.14 min; in series [2] (setting [5]) it was 6 min.
For `O=c1[nH]c(=O)c2[nH]c(=O)[nH]c2[nH]1` [Uric acid], the results for the collision cross section in series [1] and in series [3] were 133.36 Å² and 125.59 Å², respectively. The “retention time on BEH HILIC column” value came out at 5.34 min in series [2] (setting [4]) and 3.02 min in series [2] (setting [5]).
As for `O=c1ccn([C@@H]2O[C@H](CO)[C@@H](O)[C@H]2O)c(=O)[nH]1` [Uridine], the results for the collision cross section in series [1] and in series [3] were 146.3 Å² and 153.03 Å², respectively. Also, the “retention time on BEH HILIC column” value in series [2] (setting [4]) and in series [2] (setting [5]) was 1.47 min throughout.
Consider `C=C1CC[C@H](O)C/C1=C/C=C1\CCC[C@]2(C)[C@@H]([C@H](C)CCCC(C)C)CC[C@@H]12` [Vitamin D3], for which the results for the collision cross section in series [1] and in series [3] were 206.18 Å² and 201.16 Å², respectively. Further, the “retention time on BEH HILIC column” value in series [2] (setting [4]) is 17.5 min; in series [2] (setting [5]) it was 0.73 min.
The matching figures for `O=C(O)c1cc(O)c2cccc(O)c2n1` [Xanthurenic acid]: 136.81 Å², 136.52 Å², 4.65 min and 4.47 min.
